Data as given in patent publication US8053553B2, “Targeting host proteinases as a therapeutic strategy against viral and bacterial pathogens” (Socpra Sciences Sante Et Humaines, priority 2007, dated 2011).
Where two headings read alike, the source gives them in different places. Residues, ends and D or L forms follow the SMILES beside them.

Experiments:
furin = target: T1, furin (Homo sapiens, UniProt P09958); test: biochemical
T1 construct: made in house; host or cells: Drosophila S2 cells (Invitrogen expression system)
T1 sequence (P09958 108-794 limits assumed): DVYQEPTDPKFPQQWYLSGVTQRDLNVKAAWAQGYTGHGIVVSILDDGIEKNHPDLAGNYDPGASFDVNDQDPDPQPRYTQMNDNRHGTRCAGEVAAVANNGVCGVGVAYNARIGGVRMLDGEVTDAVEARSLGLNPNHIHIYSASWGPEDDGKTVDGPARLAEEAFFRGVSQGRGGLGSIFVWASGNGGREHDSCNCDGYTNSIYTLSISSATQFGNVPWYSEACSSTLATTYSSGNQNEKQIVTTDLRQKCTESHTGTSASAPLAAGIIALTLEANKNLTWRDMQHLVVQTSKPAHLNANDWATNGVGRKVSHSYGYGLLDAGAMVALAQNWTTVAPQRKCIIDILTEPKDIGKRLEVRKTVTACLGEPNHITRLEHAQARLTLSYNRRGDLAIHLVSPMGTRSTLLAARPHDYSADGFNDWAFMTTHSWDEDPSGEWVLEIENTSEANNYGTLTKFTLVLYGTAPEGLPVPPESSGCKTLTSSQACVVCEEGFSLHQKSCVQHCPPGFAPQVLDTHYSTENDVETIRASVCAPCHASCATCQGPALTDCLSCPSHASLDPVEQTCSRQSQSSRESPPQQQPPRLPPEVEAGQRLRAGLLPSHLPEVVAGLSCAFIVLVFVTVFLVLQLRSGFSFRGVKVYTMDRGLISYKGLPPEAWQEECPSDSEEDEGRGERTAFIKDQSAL

PC4 = test: Ki, μM | PC4
PACE4 = test: Ki, μM | PACE4
PC5/6 = test: Ki, μM | PC5/6
PC7 = test: Ki, μM | PC7
[1] = furin, Pyr-RTKR-AMC substrate, optimization of the inhibitory peptides (Table 3), read-out: Ki

Compound | Ki (furin; [1]) [µM] | Ki (PC4) [µM] | Ki (PC5/6) [µM] | Ki (PC7) [µM] | also measured
C[C@@H](O)[C@H](NC(=O)[C@H](CCCNC(=N)N)NC(=O)[C@H](CCCCN)NC(=O)[C@H](CCCCN)NC(=O)[C@@H](N)CCCNC(=N)N)C(N)=O [RKKRT] (H-RKKRT-NH2) |  |  |  |  | Ki (furin; furin, Pyr-RTKR-AMC substrate, N-terminal deletions (Example 2, Table 6), read-out: Ki): 1 µM
C[C@@H](O)[C@H](N)C(=O)N1CCC[C@H]1C(=O)N[C@@H](CCC(N)=O)C(=O)N[C@@H](CCCNC(=N)N)C(=O)NCCC(=O)N[C@@H](CCCNC(=N)N)C(=O)N[C@@H](CCCNC(=N)N)C(=O)N[C@@H](CCCNC(=N)N)C(=O)N[C@@H](CCCCN)C(=O)N[C@@H](CCCCN)C(=O)N[C@@H](CCCNC(=N)N)C(=O)NCC(N)=O [TPQR1RRRKKRG] | > 0.1 |  |  |  | 
C[C@@H](O)[C@H](N)C(=O)N1CCC[C@H]1C(=O)N[C@@H](CCC(N)=O)C(=O)N[C@@H](CCCNC(=N)N)C(=O)NCCCCCC(=O)N[C@@H](CCCNC(=N)N)C(=O)N[C@@H](CCCNC(=N)N)C(=O)N[C@@H](CCCNC(=N)N)C(=O)N[C@@H](CCCCN)C(=O)N[C@@H](CCCCN)C(=O)N[C@@H](CCCNC(=N)N)C(=O)NCC(N)=O [TPQR2RRRKKRG] | > 0.1 |  |  |  | 
C[C@@H](O)[C@H](N)C(=O)N1CCC[C@H]1C(=O)N[C@@H](CCC(N)=O)C(=O)N[C@@H](CCCNC(=N)N)C(=O)N[C@@H](CCCNC(N)=O)C(=O)N[C@@H](CCCNC(=N)N)C(=O)N[C@@H](CCCNC(=N)N)C(=O)N[C@@H](CCCNC(=N)N)C(=O)N[C@@H](CCCCN)C(=O)N[C@@H](CCCCN)C(=O)N[C@@H](CCCNC(=N)N)C(=O)NCC(N)=O [TPQR4RRRKKRG] |  |  |  |  | Ki (furin): > 0.1 µM
C[C@@H](O)[C@H](N)C(=O)N1CCC[C@H]1C(=O)N[C@@H](CCC(N)=O)C(=O)N[C@@H](CCCNC(=N)N)C(=O)N[C@@H](CC1CCCCC1)C(=O)N[C@@H](CCCNC(=N)N)C(=O)N[C@@H](CCCNC(=N)N)C(=O)N[C@@H](CCCNC(=N)N)C(=O)N[C@@H](CCCCN)C(=O)N[C@@H](CCCCN)C(=O)N[C@@H](CCCNC(=N)N)C(=O)NCC(N)=O [TPQR7RRRKKRG] | > 0.1 |  |  |  | 
CC[C@H](NC(=O)[C@H](CCCNC(=N)N)NC(=O)[C@H](CCC(N)=O)NC(=O)[C@@H]1CCCN1C(=O)[C@@H](N)[C@@H](C)O)C(=O)N[C@@H](CCCNC(=N)N)C(=O)N[C@@H](CCCNC(=N)N)C(=O)N[C@@H](CCCNC(=N)N)C(=O)N[C@@H](CCCCN)C(=O)N[C@@H](CCCCN)C(=O)N[C@@H](CCCNC(=N)N)C(=O)NCC(N)=O [TPQR8RRRKKRG] | > 0.1 |  |  |  | 
C[C@@H](O)[C@H](N)C(=O)N1CCC[C@H]1C(=O)N[C@@H](CCC(N)=O)C(=O)N[C@@H](CCCNC(=N)N)C(=O)N[C@H](CCC(=O)O)C(=O)N[C@@H](CCCNC(=N)N)C(=O)N[C@@H](CCCNC(=N)N)C(=O)N[C@@H](CCCNC(=N)N)C(=O)N[C@@H](CCCCN)C(=O)N[C@@H](CCCCN)C(=O)N[C@@H](CCCNC(=N)N)C(=O)NCC(N)=O [TPQReRRRKKRG] | > 0.1 |  |  |  | 
C[C@@H](O)[C@H](N)C(=O)N1CCC[C@H]1C(=O)N[C@@H](CCC(N)=O)C(=O)N[C@@H](CCCNC(=N)N)C(=O)N[C@H](CCCCN)C(=O)N[C@@H](CCCNC(=N)N)C(=O)N[C@@H](CCCNC(=N)N)C(=O)N[C@@H](CCCNC(=N)N)C(=O)N[C@@H](CCCCN)C(=O)N[C@@H](CCCCN)C(=O)N[C@@H](CCCNC(=N)N)C(=O)NCC(N)=O [TPQRkRRRKKRG] | > 0.1 |  |  |  | 
C[C@@H](O)[C@H](N)C(=O)N1CCC[C@H]1C(=O)N[C@@H](CCC(N)=O)C(=O)N[C@@H](CCCNC(=N)N)C(=O)N[C@H](CCCNC(=N)N)C(=O)N[C@@H](CCCNC(=N)N)C(=O)N[C@@H](CCCNC(=N)N)C(=O)N[C@@H](CCCNC(=N)N)C(=O)N[C@@H](CCCCN)C(=O)N[C@@H](CCCCN)C(=O)N[C@@H](CCCNC(=N)N)C(=O)NCC(N)=O [TPQRrRRRKKRG] | > 0.1 |  |  |  | 
TPQRARRRKKRF |  | 0.772 | 0.806 | 1.13 | Ki (PACE4): 0.602 µM
TPQRARRRKKRT |  | 0.515 | 0.188 | 0.206 | 
TPQRARRRKKRW |  | 0.952 | 0.433 | 0.172 | Ki (PACE4): 0.192 µM
TPQRARRRKKRY |  | 0.624 | 0.649 | 1.22 | Ki (PACE4): 1.02 µM
TPRARRRKKRI |  | 0.562 | 0.492 | 0.135 | Ki (PACE4): 0.026 µM
